Results taken from ChEMBL document CHEMBL1151200, “Comparison of fascaplysin and related alkaloids: a study of structures, cytotoxicities, and sources” (J Nat Prod, 2004).

What was measured:
MCF7 [1] = assay: Antitumor activity against […] human MCF7 cells; assay type: functional, cell-based
SW-620 = assay: Antitumor activity against human SW620 cells; assay type: functional, cell-based
[2] = Antitumor activity against human 786-O cells; assay type: functional, cell-based; conditions: 786-0
HCC 2998 = assay: Antitumor activity against human HCC2998 cells; assay type: functional, cell-based
EKVX = assay: Antitumor activity against human EKVX cells; assay type: functional, cell-based
MOLT-4 = assay: Antitumor activity against human MOLT4 cells; assay type: functional, cell-based
IGROV-1 = assay: Antitumor activity against human IGROV1 cells; assay type: functional, cell-based
M14 = assay: Antitumor activity against human M14 cells; assay type: functional, cell-based
MDA-N = assay: Antitumor activity against human MDA-N cells; assay type: functional, cell-based
SF-268 = assay: Antitumor activity against human SF268 cells; assay type: functional, cell-based
K562 = assay: Antitumor activity against human K562 cells; assay type: functional, cell-based
OVCAR-4 = assay: Antitumor activity against human OVCAR4 cells; assay type: functional, cell-based
UO-31 = assay: Antitumor activity against human UO31 cells; assay type: functional, cell-based
Malme-3M = assay: Antitumor activity against human MALME-3M cells; assay type: functional, cell-based
SR = assay: Antitumor activity against human SR cells; assay type: functional, cell-based
A498 = assay: Antitumor activity against human A498 cells; assay type: functional, cell-based
ACHN = assay: Antitumor activity against human ACHN cells; assay type: functional, cell-based
SK-MEL-28 = assay: Antitumor activity against human SK-MEL-28 cells; assay type: functional, cell-based
HCT-15 = assay: Antitumor activity against human HCT15 cells; assay type: functional, cell-based
HCT-116 = assay: Antitumor activity against human HCT116 cells; assay type: functional, cell-based
CCRF-CEM [3] = assay: Antitumor activity against human CCRF-CEM cells; assay type: functional, cell-based
CAKI-1 = assay: Antitumor activity against human Caki1 cells; assay type: functional, cell-based
L1210 = assay: Cytotoxicity against mouse L1210 cells at 0.4 ug/disk by disk diffusion soft agar colony formation assay; assay type: functional
T47D = assay: Antitumor activity against human T47D cells; assay type: functional, cell-based
OVCAR-5 = assay: Antitumor activity against human OVCAR5 cells; assay type: functional, cell-based
KM12 = assay: Antitumor activity against human KM12 cells; assay type: functional, cell-based
SK-MEL-5 = assay: Antitumor activity against human SK-MEL-5 cells; assay type: functional, cell-based
MCF7 [4] = assay: Antitumor activity against human MCF7 cells; assay type: functional, cell-based
[5] = Cytotoxicity against human H125 cells at 0.4 ug/disk by disk diffusion soft agar colony formation assay; assay type: functional
OVCAR-8 = assay: Antitumor activity against human OVCAR8 cells; assay type: functional, cell-based
LOX IMVI = assay: Antitumor activity against human LOXIMVI cells; assay type: functional, cell-based
NCI-H322M = assay: Antitumor activity against human NCI-H322M cells; assay type: functional, cell-based
CCRF-CEM [6] = assay: Cytotoxicity against human CEM cells at 0.4 ug/disk by disk diffusion soft agar colony formation assay; assay type: functional
HL-60(TB) = assay: Antitumor activity against human HL-60(TB) cells; assay type: functional, cell-based
HT-29 = assay: Antitumor activity against human HT-29 cells; assay type: functional, cell-based
SF-295 = assay: Antitumor activity against human SF295 cells; assay type: functional, cell-based
SF-539 = assay: Antitumor activity against human SF539 cells; assay type: functional, cell-based
SK-OV-3 = assay: Antitumor activity against human SKOV3 cells; assay type: functional, cell-based
UACC-62 = assay: Antitumor activity against human UACC62 cells; assay type: functional, cell-based
HOP-62 = assay: Antitumor activity against human HOP62 cells; assay type: functional, cell-based
SN12C = assay: Antitumor activity against human SN12C cells; assay type: functional, cell-based
[7] = Cytotoxicity against human H116 cells at 0.4 ug/disk by disk diffusion soft agar colony formation assay; assay type: functional
TK-10 = assay: Antitumor activity against human TK10 cells; assay type: functional, cell-based
MDA-MB-231 = assay: Antitumor activity against human MDA-MB-231 cells; assay type: functional, cell-based
MDA-MB-435 = assay: Antitumor activity against human MDA-MB-435 cells; assay type: functional, cell-based
NCI-H23 = assay: Antitumor activity against human NCI-H23 cells; assay type: functional, cell-based
BT-549 = assay: Antitumor activity against human BT549 cells; assay type: functional, cell-based
UACC-257 = assay: Antitumor activity against human UACC257 cells; assay type: functional, cell-based
NCI-H522 = assay: Antitumor activity against human NCI-H522 cells; assay type: functional, cell-based
SNB-75 = assay: Antitumor activity against human SNB75 cells; assay type: functional, cell-based
A549 = assay: Antitumor activity against human A549/ATCC cells; assay type: functional, cell-based
DU-145 = assay: Antitumor activity against human DU145 cells; assay type: functional, cell-based
COLO 205 = assay: Antitumor activity against human COLO205 cells; assay type: functional, cell-based
U-251 = assay: Antitumor activity against human U251 cells; assay type: functional, cell-based
OVCAR-3 = assay: Antitumor activity against human OVCAR-3 cells; assay type: functional, cell-based
[8] = Cytotoxicity against mouse CFU-GM cells at 0.4 ug/disk by disk diffusion soft agar colony formation assay; assay type: cell-based
NCI-H460 = assay: Antitumor activity against human NCI-H460 cells; assay type: functional, cell-based
SNB-19 = assay: Antitumor activity against human SNB19 cells; assay type: functional, cell-based
PC-3 = assay: Antitumor activity against human PC3 cells; assay type: functional, cell-based
NCI-H226 = assay: Antitumor activity against human NCI-H226 cells; assay type: functional, cell-based
RPMI-8226 = assay: Antitumor activity against human RPMI8226 cells; assay type: functional, cell-based
[9] = Antitumor activity against human Hs 578T cells; assay type: functional, cell-based
RXF 393 = assay: Antitumor activity against human RXF393 cells; assay type: functional, cell-based
MC-38 = assay: Cytotoxicity against mouse C38 cells at 0.4 ug/disk by disk diffusion soft agar colony formation assay; assay type: functional

In the case of `O=C1c2ccccc2-[n+]2ccc3c([nH]c4ccccc43)c21.[Cl-]` [FASCAPLYSIN CHLORIDE], the IC50 (MCF7 [1]) is reported as greater than 10 µM, the IC50 (SW-620) is reported as 3.7 µM and the IC50 [2] is reported as 6.7 µM. For the same compound, the IC50 (HCC 2998) was 1.7 µM, the IC50 (EKVX) was 5.1 µM and the IC50 (MOLT-4) was greater than 10 µM. The IC50 (IGROV-1) was 4.5 µM, the IC50 (M14) was 0.92 µM and the IC50 (MDA-N) was 0.56 µM. The IC50 (SF-268) was greater than 10 µM, the IC50 (K562) was greater than 10 µM and the IC50 (OVCAR-4) was 5.3 µM. For the same compound, the IC50 (UO-31) was greater than 10 µM, the IC50 (Malme-3M) was 0.36 µM and the IC50 (SR) was greater than 10 µM. The IC50 (A498) was 5.2 µM, the IC50 (ACHN) was greater than 10 µM and the IC50 (SK-MEL-28) was 9.3 µM. It also gave an IC50 (HCT-15) greater than 10 µM, an IC50 (HCT-116) of 0.6 µM and an IC50 (CCRF-CEM [3]) greater than 10 µM. It also gave an IC50 (CAKI-1) of 6.1 µM, an Activity (L1210) of 400 Zone units and an IC50 (T47D) greater than 10 µM. It also gave an IC50 (OVCAR-5) of 4.4 µM, an IC50 (KM12) of 4.6 µM and an IC50 (SK-MEL-5) of 2 µM. For the same compound, the IC50 (MCF7 [4]) was greater than 10 µM, the Activity [5] was 400 Zone units and the IC50 (OVCAR-8) was greater than 10 µM. The IC50 (LOX IMVI) was greater than 10 µM, the IC50 (NCI-H322M) was 5 µM and the Activity (CCRF-CEM [6]) was 300 Zone units. The IC50 (HL-60(TB)) was greater than 10 µM, the IC50 (HT-29) was greater than 10 µM and the IC50 (SF-295) was 3.9 µM. It also gave an IC50 (SF-539) of 4.2 µM, an IC50 (SK-OV-3) greater than 10 µM and an IC50 (UACC-62) of 4.9 µM. It also gave an IC50 (HOP-62) of 4.7 µM, an IC50 (SN12C) of 4.2 µM and an Activity [7] of 500 Zone units. It also gave an IC50 (TK-10) of 5.4 µM, an IC50 (MDA-MB-231) greater than 10 µM and an IC50 (MDA-MB-435) of 0.56 µM. The IC50 (NCI-H23) was 4.5 µM, the IC50 (BT-549) was greater than 10 µM and the IC50 (UACC-257) was greater than 10 µM. It also gave an IC50 (NCI-H522) of 4.5 µM, an IC50 (SNB-75) of 5.4 µM and an IC50 (A549) of 4.2 µM. The IC50 (DU-145) was 4.9 µM, the IC50 (COLO 205) was 1.2 µM and the IC50 (U-251) was 3.6 µM. It also gave an IC50 (OVCAR-3) of 1.5 µM, an Activity [8] of 200 Zone units and an IC50 (NCI-H460) of 4.2 µM. It also gave an IC50 (SNB-19) of 6.1 µM, an IC50 (PC-3) greater than 10 µM and an IC50 (NCI-H226) of 9.6 µM. For the same compound, the IC50 (RPMI-8226) was greater than 10 µM, the IC50 [9] was greater than 10 µM and the IC50 (RXF 393) was 3.5 µM. It also gave an Activity (MC-38) of 500 Zone units.
